Data set [1] concerns 20-HETE formation (CYP4) in RLM. The data set is described as follows: Inhibition of 20-HETE formation at 250 or 500 nM in RLM microsomal incubations. Type of data set: biochemical, rat. Conditions: 500 nM compound; RLM 300 μg/ml. On the procedure:
(§1) To screen the inhibitory effects against 20-HETE formation, compounds were screened in HLM, RLM, RKM and rCYP4F2 microsomal incubations. Compounds dissolved in either 100% methanol or 100% DMSO to yield 10 mM stock solution. Microsomal incubations containing HLM, RLM, RKM (300 μg/ml) or rCYP4F2 (25 pmol/mL), AA (100 μM), NADPH (1 mM) treated with test compounds at various concentrations (500 nM or 250 nM) in a 1 ml total volume in incubation buffer (0.12 M potassium phosphate buffer containing 5 mM magnesium chloride). Reaction was started by adding NADPH to the incubates and was carried out at 37° C. in a shaking water bath for 20 min. Reaction was stopped by placing tubes on ice, followed by adding 125 μl 20-HETE-d6 as internal standard to each sample. Microsomal incubations were extracted with 3 ml ethyl ether twice, dried down under nitrogen gas and reconstituted in 125 μl 80:20 methanol:deionized H2O for analysis. 20-HETE formation was quantified using a validated UPLC-MS/MS assay and normalized by vehicle group. Each compound had three replications (n=3). Vehicle group was used as control to calculate percentage of 20-HETE formation rate. HET0016 (250 nM) was used as positive control. Incubates without NADPH group served as the negative control. An Acquity ultra performance LC autosampler (Waters, Milford, MA) was used to isolate 20-HETE on an UPLC BEH C18, 1.7 μm (2.1×100 mm) reversed-phase column (Waters, Milford, MA) protected by a guard column (2.1×5 mm; Waters, Milford, MA) of the same packing material. Column temperature was maintained at 55° C. Mobile phases consisted of 0.005% acetic acid, 5% acetonitrile in deionized water (A) and 0.005% acetic acid in acetonitrile (B). The flow rate for mobile phases is 0.5 ml/min. The initial mixture of mobile phase was 65:35 of A and B. Mobile phase B increased at 0.4 minutes after injection from 35% to 70% in a linear gradient over 4 minutes, and again increased to 95% over 0.5 minutes where it remained for 0.3 minutes. This was followed by a linear return to initial conditions over 0.1 minutes with a 1.5 minute pre-equilibration period prior to the next sample run. Total run time was 6.4 minutes for each injection. Injection volumes were 7.5 μl. Mass spectrometric analysis was carried out using a TSQ Quantum Ultra (Thermo Fisher Scientific, San Jose, CA) triple quadrupole mass spectrometer using heated electrospray ionization (HESI). Mass spectrometer was operated in negative selective reaction monitoring (SRM) mode with unit resolutions at both Q1 and Q3 set at 0.70 Da full width at half maximum. Scan time was set at 0.01 s and collision gas pressure was 1.3 mTorr. Quantitation of 20-HETE by SRM was performed by monitoring the m/z. Analytical data was acquired and analyzed using Xcaliber 3.0 data system (ThermoFinnigan, San Jose, CA).

The nature of data set [2]: Turbidometric solubility determination. Type of data set: physicochemical. Conditions: PBS with 1% DMSO, aqueous buffer, kinetic from dmso stock, room temperature, OD620, read-out: Max Solub. As to the method:
Solubility determinations shown in Table 3 were obtained turbidometrically and in a manner similar to the one described in Perez et al., J. Biomol. Screen, 2015, 20(2), 254-64. The method requires small volumes of 100× stock concentration drug solution to be prepared in DMSO 0, 0.23, 0.47, 0.94, 1.88, 3.75, 7.5, 15.0, 30.0 and […]. The stock drug concentrations are then diluted 1:100 added into triplicate wells containing PBS in a clear bottom 384 well microtiter to achieve final testing concentrations of 0, 2.3, 4.7, 9.4, 18.8, 37.5, 75, 150, 300, 600 μM in 1% DMSO. The plate is allowed to equilibrate with constant shaking for 2 hours at room temperature. The plate is then placed in a SpectroMax V plate reader to measure absorbance at 620 nm. Increase in absorbance is evident in test wells which precipitation of the compound is evident. The plot of OD620 vs. drug concentration is used to calculate the maximum solubility limit as determined by a statistically significant increase in absorbance above the background levels.

Data set [3] deals with 20-HETE formation (CYP4) in HLM. Kind of data set: Inhibition of 20-HETE formation at 250 or 500 nM in HLM microsomal incubations. Type of data set: biochemical, human. Conditions: 500 nM compound; HLM 300 μg/ml, AA 100 μM, 20 min. As to the method:
as §1

For data set [4], the target named is T1, rCYP4F2 (Homo sapiens, UniProt P78329).
T1 sequence (P78329 5-520): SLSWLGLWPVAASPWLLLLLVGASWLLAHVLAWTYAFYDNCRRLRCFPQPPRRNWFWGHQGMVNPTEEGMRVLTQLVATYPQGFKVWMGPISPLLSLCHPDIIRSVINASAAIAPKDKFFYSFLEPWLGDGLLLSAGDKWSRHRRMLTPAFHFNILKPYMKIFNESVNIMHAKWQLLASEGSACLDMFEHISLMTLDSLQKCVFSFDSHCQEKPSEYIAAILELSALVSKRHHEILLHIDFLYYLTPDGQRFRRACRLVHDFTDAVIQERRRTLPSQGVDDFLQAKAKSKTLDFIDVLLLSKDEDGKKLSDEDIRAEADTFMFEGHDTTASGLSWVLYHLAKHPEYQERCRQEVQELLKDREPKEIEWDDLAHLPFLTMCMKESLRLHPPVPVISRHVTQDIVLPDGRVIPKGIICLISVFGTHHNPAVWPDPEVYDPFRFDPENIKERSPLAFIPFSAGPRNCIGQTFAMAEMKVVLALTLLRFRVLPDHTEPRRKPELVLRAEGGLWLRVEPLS
The data set is described as follows: Inhibition of 20-HETE formation at 250 or 500 nM in rCYP4F2 incubations. The data set is classed as biochemical. Conditions: 500 nM compound, rCYP4F2 25 pmol/mL; for inhibition at 0.5 µM: read-out: rCYP4F2 % inh. @ 500 nM. As to the method: as §1

Molecules are shown by their SMILES. Values after ≈ are worked out from the molar mass of the structure shown.

`COc1ccc(SC2CCN(c3cn[nH]c3)CC2)cc1` [Compound 80, 4-((4-Methoxyphenyl)thio)-1-(1H-pyrazol-4-yl)piperidine]: in data set [1], the “RLM % inh. @ 500 nM” value turned out to be 42.00%. In data set [2], the solubility at 2 h was determined as 89 µM (≈ 25.8 µg/mL). Moreover, the “HLM % inh. @ 500 nM” value in data set [3] turned out to be 86%. For the same compound, the inhibition at 0.5 µM in data set [4] is 90%.
As to `Cl.Clc1ccc(CC2CCN(c3cn[nH]c3)CC2)cc1` [Compound 115, 4-(4-Chlorobenzyl)-1-(1H-pyrazol-4-yl)piperidine hydrochloride], the “RLM % inh. @ 500 nM” value in data set [1] turned out to be 74.30%. Also, the solubility at 2 h in data set [2] was determined as 74 µM. In data set [3], the “HLM % inh. @ 500 nM” value came to 85.50%. Also, the “rCYP4F2 % inh. @ 500 nM” value in data set [4] is on record as 84.20%.
Turning to `Clc1ccc(C2CCN(c3cn[nH]c3)CC2)cc1` [Compound 63, 4-(4-chlorophenyl)-1-(1H-pyrazol-4-yl)piperidine], the “RLM % inh. @ 500 nM” value in data set [1] was determined as 10.30%. Besides, the solubility at 2 h in data set [2] came out at 13.3 µM (≈ 3.48 µg/mL). Moreover, the “HLM % inh. @ 500 nM” value in data set [3] turned out to be 74.3%. The inhibition at 0.5 µM in data set [4] is 73.8%.
In the case of `Clc1cccc(C2CCN(c3cn[nH]c3)CC2)c1` [Compound 61, 4-(3-Chlorophenyl)-1-(1H-pyrazol-4-yl)piperidine], the “RLM % inh. @ 500 nM” value in data set [1] is listed as 61.00%. Also, the solubility at 2 h in data set [2] was found to be 121 µM (≈ 31.7 µg/mL). In data set [3], the “HLM % inh. @ 500 nM” value is recorded as 77.5%. For the same compound, in data set [4], the inhibition at 0.5 µM came to 81.3%.
The corresponding values for `Fc1ccc(SC2CCN(c3cn[nH]c3)CC2)cc1` [Compound 70, 4-((4-Fluorophenyl)thio)-1-(1H-pyrazol-4-yl)piperidine] are 35.70%, 109 µM (≈ 30.2 µg/mL), 84.8% and 80.5%.
The corresponding values for `COc1cc(F)cc(C2CCN(c3ccn[nH]3)CC2)c1` [Compound 73, 4-(3-Fluoro-5-methoxyphenyl)-1-(1H-pyrazol-5-yl)piperidine] are 0.00%, 164 µM (≈ 45.2 µg/mL), 61% and 54.7%.
For the compound `CS(=O)(=O)Cc1ccc(C2CCN(c3cn[nH]c3)CC2)cc1` [Compound 89, 4-(4-((methylsulfonyl)methyl)phenyl)-1-(1H-pyrazol-4-yl)piperidine], the “RLM % inh. @ 500 nM” value in data set [1] came out at 0.00%. Besides, the solubility at 2 h in data set [2] turned out to be 324 µM (≈ 104 µg/mL). The “HLM % inh. @ 500 nM” value in data set [3] was 34.8%. Also, the inhibition at 0.5 µM in data set [4] is 72.9%.
Turning to `O=C1CCCN1c1ccc(CC2CCN(c3cn[nH]c3)CC2)cc1` [Compound 107, 1-(4-((1-(1H-Pyrazol-4-yl)piperidin-4-yl)methyl)phenyl)pyrrolidin-2-one], the “RLM % inh. @ 500 nM” value in data set [1] came to 63.60%. Moreover, the solubility at 2 h in data set [2] stood at 216 µM (≈ 70.1 µg/mL). Moreover, in data set [3], the “HLM % inh. @ 500 nM” value stood at 78.90%. In addition, the inhibition at 0.5 µM in data set [4] was found to be 82.3%.
Regarding `O=C1CCCN1Cc1ccc(C2CCN(c3ccn[nH]3)CC2)cc1` [Compound 84, 1-(4-(1-(1H-Pyrazol-5-yl)piperidin-4-yl)benzyl)pyrrolidin-2-one], the “RLM % inh. @ 500 nM” value in data set [1] was 42.70%. In addition, in data set [2], the solubility at 2 h was above 600 µM. Further, the “HLM % inh. @ 500 nM” value in data set [3] amounted to 79.4%. In addition, in data set [4], the inhibition at 0.5 µM turned out to be 80.3%.
Take `O=S1(=O)Cc2ccc(C3CCN(c4cn[nH]c4)CC3)cc2C1` [Compound 108, 5-(1-(1H-Pyrazol-4-yl)piperidin-4-yl)-1,3-dihydrobenzo[c]thiophene 2,2-dioxide]: the “RLM % inh. @ 500 nM” value in data set [1] was 41.70%. In addition, the solubility at 2 h in data set [2] worked out at 187 µM (≈ 59.4 µg/mL). Also, the “HLM % inh. @ 500 nM” value in data set [3] came to 90.00%. In addition, the inhibition at 0.5 µM in data set [4] is 83%.
The corresponding values for `COc1ccc(C2CCN(c3ccn[nH]3)CC2)c(Cl)c1` [Compound 66, 4-(2-Chloro-4-methoxyphenyl)-1-(1H-pyrazol-5-yl)piperidine] are 0.00%, 133 µM (≈ 38.8 µg/mL), 36% and 58%.
Taken in the same sequence, the figures for `CC(=O)N(C)c1ccc(C2CCN(c3ccn[nH]3)CC2)c(F)c1` [Compound 71, N-(4-(1-(1H-Pyrazol-5-yl)piperidin-4-yl)-3-fluorophenyl)-N-methylacetamide] were 25.00%, above 600 µM, 82% and 52.2%.
`Clc1ccc(C2CCN(c3ccn[nH]3)CC2)cc1` [Compound 62, 4-(4-chlorophenyl)-1-(1H-pyrazol-5-yl)piperidine]: the “RLM % inh. @ 500 nM” value in data set [1] worked out at 0.00%. The solubility at 2 h in data set [2] came out at 42.4 µM (≈ 11.1 µg/mL). In addition, the “HLM % inh. @ 500 nM” value in data set [3] was 60.0%. The inhibition at 0.5 µM in data set [4] was found to be 45%.
On to `COc1cc(F)cc(C2CCN(c3cn[nH]c3)CC2)c1` [Compound 72, 4-(3-Fluoro-5-methoxyphenyl)-1-(1H-pyrazol-4-yl)piperidine], for which, in data set [1], the “RLM % inh. @ 500 nM” value is given as 11.00%. Moreover, in data set [2], the solubility at 2 h came out at 234 µM (≈ 64.4 µg/mL). Moreover, in data set [3], the “HLM % inh. @ 500 nM” value worked out at 77%. Moreover, the inhibition at 0.5 µM in data set [4] was 77%.
On to `COc1ccc(C2CCN(c3ccn[nH]3)CC2)cc1Cl` [Compound 67, 4-(3-Chloro-4-methoxyphenyl)-1-(1H-pyrazol-5-yl)piperidine], for which the “RLM % inh. @ 500 nM” value in data set [1] came to 30.20%. In addition, the solubility at 2 h in data set [2] was determined as 205 µM (≈ 59.8 µg/mL). In data set [3], the “HLM % inh. @ 500 nM” value was determined as 83.2%. In addition, in data set [4], the inhibition at 0.5 µM is 90.9%.
The corresponding values for `COc1cc(C2CCN(c3cn[nH]c3)CC2)ccc1F` [Compound 75, 4-(4-Fluoro-3-methoxyphenyl)-1-(1H-pyrazol-4-yl)piperidine] are 0.00%, 127 µM (≈ 35 µg/mL), 61.10% and 74.5%.
Taken in the same sequence, the figures for `COc1cc(C2CCN(c3ccn[nH]3)CC2)ccc1F` [Compound 74, 4-(4-Fluoro-3-methoxyphenyl)-1-(1H-pyrazol-5-yl)piperidine] were 0.00%, 201 µM (≈ 55.3 µg/mL), 55% and 32%.

Source of the values: patent publication US12479816B2, “20-HETE formation inhibitors” (UNIVERSITY OF PITTSBURGH—OF THE COMMONWEALTH SYSTEM OF …, priority 2019, dated 2025).
